This test deals with T1, human GPR142 receptor (Homo sapiens, UniProt Q7Z601).
T1 construct: Gene ID: 350383) was cloned; expressed in transfected cells
T1 sequence (Q7Z601 1-462): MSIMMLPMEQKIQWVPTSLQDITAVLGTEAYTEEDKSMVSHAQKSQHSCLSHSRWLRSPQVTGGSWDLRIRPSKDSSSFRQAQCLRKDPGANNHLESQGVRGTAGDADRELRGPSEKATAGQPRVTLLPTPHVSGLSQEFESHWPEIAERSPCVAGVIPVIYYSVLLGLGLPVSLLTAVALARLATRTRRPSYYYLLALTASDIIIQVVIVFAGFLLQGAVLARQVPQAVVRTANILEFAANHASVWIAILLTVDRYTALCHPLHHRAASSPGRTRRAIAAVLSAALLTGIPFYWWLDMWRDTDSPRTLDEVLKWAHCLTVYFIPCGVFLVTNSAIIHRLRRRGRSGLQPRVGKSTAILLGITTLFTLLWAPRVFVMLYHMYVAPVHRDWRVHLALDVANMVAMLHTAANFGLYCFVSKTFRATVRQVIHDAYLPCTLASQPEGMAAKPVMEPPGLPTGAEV
Put plainly: IP1 accumulation HTRF assay for GPR142 agonist activity in HEK293 FLPinTREX cells. To be noted: HEK293 FLPinTREX cells stably expressing human GPR142, IP1 generation (IP-One HTRF), 60 minutes at 37° C. In kind it is cell-based. How it is done:
This assay allows monitoring activity of compounds acting on Gq-coupled receptors. The principle of the assay is based on the competition between IP1 generated in the cells with d2-labeled IP1 for binding to a monoclonal anti-IP1 […] cryptate that allows for measuring quantitative changes using the Homogeneous Time Resolved Fluorescence. LiCl is added to the cell stimulation buffer, causing IP1 to accumulate upon receptor activation.
The open reading frame encoding the human GPR142 receptor (primary accession number: NM_181790; Gene ID: 350383) was cloned into the pcDNA5/FRT/TO vector for stable, and inducible expression using the Flp-In™ T-REx™ technology in HEK293 FLPinTREX cells. For stable expression, HEK293 FLPinTREX cells were co-transfected with the vector encoding human GPR142 and the pOG44 plasmid that constitutively expresses the Flp recombinase for stable integration of the human GPR142 into the genome of the Flp-In™ T-REx™ host cell line. Stably expressing clones were obtained by hygromycin (100 μg/ml) selection. To test for GPR142 agonist activity the human GPR142 receptor cell clone was thawed at 37° C. and immediately diluted with cell culture medium (Hams F12 medium; 10% FBS, 15 μg/ml Blasticidin, 100 μg/ml Hygromycin B). After centrifugation, the cell pellet was resuspended in medium, and distributed into the assay well plates (10000 cells/well; 20 μl/well). Receptor expression was induced by adding 0.1 μg/ml Doxycyclin to the culture medium. The plates were incubated for one hour at room temperature, followed by a 24 hours incubation at 37° C./5% CO2. After washing the cells in the plate twice with 60 μl assay buffer (10 mM HEPES, 1 mM CaCl2, 0.5 mM MgCl2, 4.2 mM KCl, 146 mM NaCl, 5.5 mM Glucose, 50 mM LiCl and 0.1% BSA, pH 7.4; 20 μl buffer remained in the wells after washing), 10 μl per well of test compound diluted in assay buffer was added to the wells. The assay plate was incubated for 60 minutes at 37° C. Then 5 μl per well of Anti-IP1-Cryptate Tb solution (prepared by 1:33 dilution of stock with Lysis buffer from IP-One Kit) and 5 μl per well of IP1-d2 (Prepared by 1:33 dilution of stock with Lysis buffer from IP-One Kit) dilution were added, followed by another 60 minutes incubation (light protected, room temperature). The emissions at 615 nm and 665 nm (excitation wavelength: 320 nm) were measured on the EnVision™ reader (PerkinElmer). The ratio between the emission at 665 nm and 615 was calculated by the reader.
Each assay microtiter plate contained 8 wells in with vehicle controls instead of compound (100% CTL; low values, negative control) and 8 wells with a reference GPR142 agonist (200% CTL; high values; positive control). An IP1 standard curve was prepared according to the manufacturer.
The ratio between the emission at 665 nm and the emission at 615 nm (Em665/Em615 ratio) was calculated and the signals for the test items were normalized using the positive and negative controls by the following formula: 100−(100×[(ratio(sample)−ratio(low))/(ratio(high)−ratio(low))].
In general, EC50 refers to the concentration giving half of the maximal effect. High values mean lower potency in that assay, low ones higher potency in that assay. In turn, `Cc1ccc(C(=O)Nc2cccc(C(F)(F)F)c2)cc1-n1cc(-c2cncn2C)nn1` [Example 1] showed an EC50 of 0.4 nM.
`Cn1cncc1-c1cn(-c2cccc(C(=O)Nc3cccc(C(F)(F)F)c3)c2)nn1` [Example 2, 3-[4-(1-Methyl-1H-imidazol-5-yl)-1H-1,2,3-triazol-1-yl]-N-[3-(trifluoromethyl)-phenyl]benzamide] came in with an EC50 of 0.05 nM.
In the case of `Cn1cncc1-c1cn(-c2cccc(C(=O)Nc3cccc(Cl)c3)c2)nn1` [Example 3] it was 0.21 nM.
In the case of `Cn1cncc1-c1cn(-c2cccc(C(=O)Nc3cccc(OC(F)(F)F)c3)c2)nn1` [Example 4] it was 0.47 nM.
Then `Cc1ccc(C(=O)Nc2cccc(Cl)c2)cc1-n1cc(-c2cncn2C)nn1` [Example 5], with 0.37 nM; and `Cc1ccc(C(=O)Nc2cccc(OC(F)(F)F)c2)cc1-n1cc(-c2cncn2C)nn1` [Example 6], with 0.21 nM.
Take `Cc1cccc(NC(=O)c2cccc(-n3cc(-c4cncn4C)nn3)c2)c1` [Example 7]: it took 0.37 nM to reach a half-maximal effect (EC50).
Then `Cc1ncn(C)c1-c1cn(-c2cccc(C(=O)Nc3cccc(C(F)(F)F)c3)c2)nn1` [Example 8, 3-[4-(1,4-Dimethyl-1H-imidazol-5-yl)-1H-1,2,3-triazol-1-yl]-N-[3-(trifluoromethyl)-phenyl]benzamide], with 0.63 nM; and `Cn1cncc1-c1cn(-c2cccc(C(=O)Nc3cccc(C(F)(F)F)c3F)c2)nn1` [Example 9], with 0.45 nM; and `Cn1cncc1-c1cn(-c2cccc(C(=O)Nc3cc(F)cc(C(F)(F)F)c3)c2)nn1` [Example 10], with less than 0.38 nM.
Then `Cn1cncc1-c1cn(-c2cccc(C(=O)Nc3cccc(C#N)c3)c2)nn1` [Example 11], with 0.74 nM.
Then `COC(=O)c1cccc(NC(=O)c2cccc(-n3cc(-c4cncn4C)nn3)c2)c1` [Example 12], with 0.73 nM.
For the molecule `CN(C)c1cccc(NC(=O)c2cccc(-n3cc(-c4cncn4C)nn3)c2)c1` [Example 13], it took 0.85 nM to reach a half-maximal effect (EC50).
In turn, `COc1cccc(NC(=O)c2cccc(-n3cc(-c4cncn4C)nn3)c2)c1` [Example 14] gave an EC50 of 0.86 nM.
Then `Cn1cncc1-c1cn(-c2cccc(C(=O)Nc3cccc([N+](=O)[O-])c3)c2)nn1` [Example 15], with less than 0.38 nM; and `Cc1cc(Br)cc(NC(=O)c2cccc(-n3cc(-c4cncn4C)nn3)c2)c1` [Example 16], with less than 0.38 nM; and `Cc1ncn(C)c1-c1cn(-c2cccc(C(=O)Nc3cccc(Cl)c3)c2)nn1` [Example 17], with 0.95 nM.
Regarding `Cc1ncn(C)c1-c1cn(-c2cccc(C(=O)Nc3cccc(OC(F)(F)F)c3)c2)nn1` [Example 18], the EC50 came to 0.64 nM.
`Cn1cncc1-c1cn(-c2cccc(C(=O)Nc3cccc(OC(F)F)c3)c2)nn1` [Example 19] gave an EC50 of less than 0.38 nM.
In the case of `Cn1cncc1-c1cn(-c2cccc(C(=O)Nc3cccc(OC(F)(F)C(F)F)c3)c2)nn1` [Example 20], the EC50 was 0.64 nM. In other words, the sub-nanomolar range.
